Experimental findings from patent US8557816B2, “Aurora kinase modulators and method of use” (Amgen Inc., priority 2007, dated 2013) are described below.

One assay deals with T1, AuroraA-TPX2 (Homo sapiens, UniProt O14965).
T1 construct: 20 μL of AuroraA-TPX2 KD GST for a final volume of about 41 μL; GST
T1 sequence (O14965 133-383 limits assumed): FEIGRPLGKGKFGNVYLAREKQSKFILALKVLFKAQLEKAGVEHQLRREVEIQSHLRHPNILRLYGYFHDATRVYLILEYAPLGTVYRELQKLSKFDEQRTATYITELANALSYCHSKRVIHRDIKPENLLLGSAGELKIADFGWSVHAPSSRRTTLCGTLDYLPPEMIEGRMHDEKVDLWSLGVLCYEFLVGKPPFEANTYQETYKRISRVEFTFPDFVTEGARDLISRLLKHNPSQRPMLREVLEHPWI
T1 sequence (Q9ULW0 1-43 partner limits assumed): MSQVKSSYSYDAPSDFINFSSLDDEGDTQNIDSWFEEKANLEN
Briefly: AuroraA-TPX2 Homogeneous Time Resolved Fluorescent (HTRF) kinase assay. The class given is biochemical. The following applies: average; read-out: AurA_IC50_IP (uM Avg). In a few lines:
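HTRF read-out (Eu 615 nm to APC 655 nm) of phosphorylated biotin-PLK, detected with 0.02 nM europium anti-phosphoPLK antibody and 0.0005 mg/mL SA-APC after overnight equilibration.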
(In TR-FRET formats the signal depends on donor and acceptor labels being close together.)

The target in the next assay is T2, AuroraB (Homo sapiens, UniProt Q96GD4).
T2 construct: 20 μL of AuroraB FL H is for a final volume of 41 μL; His
T2 sequence (Q96GD4 whole entry): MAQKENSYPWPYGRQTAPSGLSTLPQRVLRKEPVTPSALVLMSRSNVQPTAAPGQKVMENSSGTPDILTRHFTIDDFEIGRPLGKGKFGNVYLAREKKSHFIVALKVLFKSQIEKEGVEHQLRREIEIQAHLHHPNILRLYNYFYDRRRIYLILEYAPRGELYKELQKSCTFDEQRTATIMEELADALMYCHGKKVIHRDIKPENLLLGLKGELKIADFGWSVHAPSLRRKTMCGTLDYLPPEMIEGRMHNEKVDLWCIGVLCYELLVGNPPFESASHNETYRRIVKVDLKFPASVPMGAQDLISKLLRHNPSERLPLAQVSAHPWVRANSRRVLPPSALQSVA
Description: AuroraB Homogeneous Time Resolved Fluorescent (HTRF) kinase assay. The class given is biochemical. The following applies: average; read-out: AurB_IC50_IP (uM Avg). The method in brief:
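Full-length His-tagged kinase phosphorylates biotinylated Histone H3 (0.1 μM final) with ATP in pH 7.5 HEPES containing MgCl, MnCl, DTT and BSA for about 90 min. EDTA-containing detection mix with SA-APC and Eu-anti-phosphoHistone H3 then equilibrated about 60 min; HTRF read with 320 nm excitation, emissions 615/655 nm.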

For the compound `CN(c1ccc(Oc2ccnc3ccc(=O)[nH]c23)cc1)c1nnc(-c2ccc(Cl)cc2)c2ccccc12` [compound 500], the figures for the IC50 on AuroraA-TPX2 and at AuroraB were above 25 µM and 4.17 µM, respectively.
On the same counts, the results for `COc1cnc2c(Sc3ccc(Nc4nnc(-c5ccc6occc6c5)c5ccccc45)cc3)ccnc2c1` [compound 501] are 0.029 µM and 0.058 µM.
Regarding `COc1cnc2c(Sc3ccc(Nc4nnc(-c5ccc6cn(C)nc6c5)c5ccccc45)cc3)ccnc2c1` [compound 502], the figures for the IC50 on AuroraA-TPX2 and at AuroraB were 0.027 µM and 0.009 µM, respectively.
On the same counts, the results for `COc1cnc2c(Sc3ccc(Nc4nnc(N5CCN(C)CC5)c5ccccc45)cc3)ccnc2c1` [compound 503] are 0.02 µM and 0.007 µM.
As to `COc1cnc2c(Sc3ccc(Nc4nnc(-c5ccc6nonc6c5)c5ccccc45)cc3)ccnc2c1` [compound 504], the IC50 on AuroraA-TPX2 turned out to be 0.017 µM; at AuroraB, 0.032 µM.
On the same counts, the results for `CCOc1nc(-c2nnc(Nc3ccc(Sc4ccnc5cc(OC)cnc45)cc3)c3ccccc23)cs1` [compound 505] are 0.016 µM and 0.014 µM.
On the same counts, the results for `COc1cnc2c(Sc3ccc(Nc4nnc(-c5cscn5)c5ccccc45)cc3)ccnc2c1` [compound 506] are 0.748 µM and 0.089 µM.
On the same counts, the results for `COc1cnc2c(Sc3ccc(Nc4nnc(N5CCN(CC(F)F)CC5)c5ccccc45)cc3)ccnc2c1` [compound 507] are 0.152 µM and 0.042 µM.
Turning to `COc1cnc2c(Sc3ccc(Nc4nnc(NCCCSC)c5ccccc45)cc3)ccnc2c1` [compound 508], the IC50 was determined as 0.082 µM on AuroraA-TPX2 and 0.009 µM on AuroraB.
Consider `COc1ccc(-c2nnc(Nc3ccc(Sc4ccnc5cccnc45)cc3)c3ccccc23)cn1` [compound 509], for which the IC50 at AuroraA-TPX2 is 0.317 µM; at AuroraB, 0.013 µM.
On the same counts, the results for `Cc1csc(-c2nnc(Nc3ccc(Oc4ccnc5cccnc45)cc3)c3cc(F)c(F)cc23)c1` [compound 510] are 0.32 µM and 0.05 µM.
For the compound `COc1cnc2c(Sc3ccc(Nc4nnc(OC(C)C)c5ccccc45)cc3)ccnc2c1` [compound 511], the values for the IC50 at AuroraA-TPX2 and on AuroraB were 0.585 µM and 0.069 µM, respectively.
For `CCOc1nnc(Nc2ccc(Sc3ccnc4cc(OC)cnc34)cc2)c2ccccc12` [compound 512], the IC50 came to 0.501 µM at AuroraA-TPX2 and 0.12 µM at AuroraB.
On the same counts, the results for `COc1cnc2c(Sc3ccc(Nc4nnc(OCC(F)(F)F)c5ccccc45)cc3)ccnc2c1` [compound 513] are 0.231 µM and 0.03 µM.
For the compound `COc1cnc2c(Sc3ccc(Nc4nnc(SC)c5ccccc45)cc3)ccnc2c1` [compound 514], the results for the IC50 on AuroraA-TPX2 and at AuroraB were 0.189 µM and 0.01 µM, respectively.
On the same counts, the results for `COCCOc1nnc(Nc2ccc(Sc3ccnc4cc(OC)cnc34)cc2)c2ccccc12` [compound 515] are 0.072 µM and 0.012 µM.
On the same counts, the results for `COc1cnc2c(Sc3ccc(Nc4nnc(-c5cccc(Cl)c5)c5ccccc45)cc3)ccnc2c1` [compound 516] are 0.088 µM and 0.068 µM.
On the same counts, the results for `c1ccc2c(Sc3ccc(Nc4nnc(-c5ccc6c(c5)OCO6)c5ccccc45)cc3)ccnc2c1` [compound 517] are 0.15 µM and 0.017 µM.
`Clc1cccc(-c2nnc(Nc3ccc(Sc4ccnc5ccsc45)cc3)c3ccccc23)c1` [compound 518]: the IC50 at AuroraA-TPX2 is 0.218 µM; on AuroraB, 0.01 µM.
Regarding `COc1cnc2c(Sc3ccc(Nc4nnc(-c5ccccc5)c5ccccc45)cc3F)ccnc2c1` [compound 519], the results for the IC50 at AuroraA-TPX2 and on AuroraB were 0.083 µM and 0.053 µM, respectively.
On the same counts, the results for `COc1cnc2c(Sc3ccc(Nc4nnc(N5CCCC5)c5ccccc45)cc3)ccnc2c1` [compound 521] are 0.112 µM and 0.025 µM.
Take `COc1cnc2c(Sc3ccc(Nc4nnc(-c5ccc6c(c5)OCO6)c5ccccc45)cc3F)ccnc2c1` [compound 522]: the figures for the IC50 at AuroraA-TPX2 and at AuroraB were 0.009 µM and 0.022 µM, respectively.
On to `COc1cnc2c(Sc3ccc(Nc4nnc(N5CCC(C(F)(F)F)CC5)c5ccccc45)cc3)ccnc2c1` [compound 523], for which the IC50 came to 0.036 µM on AuroraA-TPX2 and 0.144 µM at AuroraB.
On the same counts, the results for `CCCN(C)c1nnc(Nc2ccc(Sc3ccnc4cc(OC)cnc34)cc2)c2ccccc12` [compound 524] are 0.093 µM and 0.099 µM.
On the same counts, the results for `COc1cnc2c(Oc3ccc(Nc4nnc(-c5ccc(C)c(OC)c5)c5ccccc45)cc3)ccnc2c1` [compound 525] are 0.013 µM and 0.028 µM.
On to `COc1cnc2c(Sc3ccc(Nc4nnc(N5CCC(Cl)CC5)c5ccccc45)cc3)ccnc2c1` [compound 527], for which the IC50 worked out at 0.036 µM at AuroraA-TPX2 and 0.138 µM on AuroraB.
On the same counts, the results for `COc1cnc2c(Sc3ccc(Nc4nnc(-c5cc(C)cs5)c5ccccc45)cc3F)ccnc2c1` [compound 528] are 0.064 µM and 0.293 µM.
As to `COc1cnc2c(Sc3ccc(Nc4nnc(-c5ccc(C)c(OC)c5)c5ccccc45)cc3)ccnc2c1` [compound 529], the IC50 at AuroraA-TPX2 turned out to be 0.02 µM; at AuroraB, 0.037 µM.
As to `COc1cnc2c(Sc3ccc(Nc4nnc(-c5ccc6c(c5)OCO6)c5ccccc45)cc3)ccnc2c1` [compound 530], the IC50 at AuroraA-TPX2 and on AuroraB was 0.014 µM in each case.
Regarding `COc1cnc2c(Sc3ccc(Nc4nnc(N5CCC(F)(F)CC5)c5ccccc45)cc3)ccnc2c1` [compound 531], the IC50 amounted to 0.089 µM at AuroraA-TPX2 and 0.024 µM on AuroraB.
On the same counts, the results for `COc1cnc2c(Sc3ccc(Nc4nnc(N5CCC[C@@H](OC)C5)c5ccccc45)cc3)ccnc2c1` [compound 532] are 0.061 µM and 0.019 µM.
On the same counts, the results for `COCCNc1nnc(Nc2ccc(Sc3ccnc4cc(OC)cnc34)cc2)c2ccccc12` [compound 533] are 0.045 µM and 0.03 µM.
As to `COC1CCN(c2nnc(Nc3ccc(Sc4ccnc5cc(C#N)ccc45)cc3)c3ccccc23)CC1` [compound 534], the IC50 on AuroraA-TPX2 turned out to be 0.035 µM; on AuroraB, 0.02 µM.
Consider `COCCCNc1nnc(Nc2ccc(Sc3ccnc4cc(OC)cnc34)cc2)c2ccccc12` [compound 535], for which the figures for the IC50 at AuroraA-TPX2 and on AuroraB were 0.022 µM and 0.02 µM, respectively.
On the same counts, the results for `COc1cnc2c(Sc3ccc(Nc4nnc(Cl)c5ccccc45)cc3)ccnc2c1` [compound 536] are 0.812 µM and 0.031 µM.
On the same counts, the results for `COc1cnc2c(Sc3ccc(Nc4nnc(NCCc5ccccn5)c5ccccc45)cc3)ccnc2c1` [compound 537] are 0.198 µM and 0.111 µM.
On the same counts, the results for `COc1cnc2c(Sc3ccc(Nc4nnc(N5CCC(N6CCCC6)CC5)c5ccccc45)cc3)ccnc2c1` [compound 538] are 3.43 µM and 0.045 µM.
Regarding `COc1cnc2c(Oc3ccc(Nc4nnc(-c5cc(F)cc(F)c5)c5ccccc45)cc3)ccnc2c1` [compound 539], the IC50 on AuroraA-TPX2 stood at 0.133 µM; at AuroraB it was 0.02 µM.
On the same counts, the results for `COc1cnc2c(Sc3ccc(Nc4nnc(C5CC5)c5ccccc45)cc3)ccnc2c1` [compound 541] are 0.393 µM and 0.025 µM.
On the same counts, the results for `COc1cnc2c(Oc3ccc(Nc4nncc5ccccc45)cc3)ccnc2c1` [compound 542, N-(4-((7-methoxy-1,5-naphthyridin-4-yl)oxy)phenyl)-1-phthalazinamine] are 0.319 µM and 0.041 µM.
On the same counts, the results for `COc1cnc2c(Oc3ccc(Nc4nnc(C5CC5)c5ccccc45)cc3)ccnc2c1` [compound 543] are 0.581 µM and 0.044 µM.
Take `COc1cnc2c(Oc3ccc(Nc4nnc(-c5ccc(C)c(N)c5)c5cc(F)c(F)cc45)cc3)ccnc2c1` [compound 545]: the IC50 at AuroraA-TPX2 was 0.085 µM; on AuroraB it was 0.02 µM.
On the same counts, the results for `COc1cnc2c(Oc3ccc(Nc4nnc(-c5ccccc5Cl)c5ccccc45)cc3)ccnc2c1` [compound 546] are 0.723 µM and 0.135 µM.
Consider `COc1cnc2c(Sc3ccc(Nc4nncc5ccccc45)cc3)ccnc2c1` [compound 547, N-(4-((7-methoxy-1,5-naphthyridin-4-yl)sulfanyl)phenyl)-1-phthalazinamine], for which the IC50 at AuroraA-TPX2 was found to be 0.335 µM; at AuroraB, 0.02 µM.
On the same counts, the results for `COc1ccc2nccc(Sc3ccc(Nc4nnc(N5CCCCC5)c5ccccc45)cc3)c2n1` [compound 548] are 0.27 µM and 0.031 µM.
On the same counts, the results for `COc1ccc2nccc(Sc3ccc(Nc4nnc(-c5cc(C)cs5)c5ccccc45)cc3)c2n1` [compound 549] are 0.098 µM and 0.064 µM.
On the same counts, the results for `COc1ccc2nccc(Sc3ccc(Nc4nnc(-c5ccc(Cl)cn5)c5ccccc45)cc3)c2n1` [compound 550] are 0.107 µM and 0.022 µM.
Regarding `COc1ccc2nccc(Oc3ccc(Nc4nnc(-c5ccc6c(c5)OCO6)c5ccccc45)cc3)c2n1` [compound 551], the IC50 on AuroraA-TPX2 was found to be 0.096 µM; at AuroraB it was 0.017 µM.
